We go through 26 molecules from patent US11459325B2, “Heterocyclic compound” (Takeda Pharmaceutical Company Limited, priority 2018, dated 2022).

SMILES strings stand for the structures.

For one assay, the system named is GBA mutant human fibroblasts GM008760. In words: Glucosylceramide lowering assay. Particulars: 10 μM test compound, 4 days culture; GlcCer (C16:0)/Cer (C16:0) molar ratio of test compound group relative to DMSO control group x100; smaller value = glucosylceramide lowering. In kind it is cell-based. The method, then:
Glucosylceramide Lowering Assay
Using GBA mutant human fibroblasts containing mutated glucosylceramidase, the effect of test compounds on glucosylceramide reduction was evaluated.
GBA mutant human fibroblasts GM008760 (Coriel Institute) were seeded in a 96-well multiwell plate at a density of 5,000 cells/100 μL culture solution/well. GlutaMAX (Thermo Fishcer Scientific), penicillin-streptomycin, and Minimum Essential Media (Thermo Fishcer Scientific) supplemented with 15% fetal bovine serum were used as a culture solution. After culturing for 2 days, a 10 mM DMSO solution of the test compound diluted with the culture solution was added to a 96-well plate by 100 μL to adjust a final test compound concentration to 10 μM. After culturing the cells for 4 days in the presence of the test compound, the culture solution was removed, and the cells adhered to the 96-well plate were washed with a phosphate buffer (ThermoFisher Scientific, product number 14190-144). A solvent composed of 50% ethanol and 50% isopropanol was added to the 96-well plate by 100 μL, and the intracellular lipids were dissolved by pipetting. A solution prepared by dissolving N-Octadecanoyl-D35-psychosine (50 ng/mL, Matreya LLC Inc.) as an internal standard in 50% ethanol and 50% isopropanol was added to the sample in an equal volume, and 2.5 μL of the centrifuged supernatant was used as the test compound group.
In the same manner as above, a control group was prepared by using DMSO instead of the 10 mM DMSO solution of the test compound.
For the test compound group and the control group, molar concentrations of glucosylceramide [GlcCer (C16:0)] and ceramide [Cer (C16:0)] were quantified using Rapidfire-MS/MS (API-5000, Turbo-ESI, SRM), and the glucosylceramide lowering effect of the test compound group relative to the control group was evaluated by the following formula. (GlcCer/Cer of test compound group)/(GlcCer/Cer of control group)×100 wherein GlcCer/Cer is the ratio of the molar concentration of glucosylceramide to that of ceramide.
In this test, when the numerical value obtained by the above calculation formula is small, glucosylceramide is metabolized to ceramide by the test compound, or the synthesis of glucosylceramide from ceramide is inhibited by the test compound, that is, it can be said that the test compound has a glucosylceramide lowering effect.
As for `Cc1cn(C)c(=O)c2c(C(=O)N3CC4CC4(c4ccc(OC(F)(F)F)cc4)C3)cnn12` (centres unmarked) [Example 310, 5,7-dimethyl-3-((1-(4-(trifluoromethoxy)phenyl)-3-azabicyclo[3.1.0]hex-3-yl)carbonyl)pyrazolo[1,5-a]pyrazin-4(5H)-one], the “10 μM GlcCer/Cer (% of control)” value is 68 % of control.

Still in this assay, the particulars now being: Homo sapiens, Fibroblast, 96 h; 10 μM test compound, 4 days culture; GlcCer (C16:0)/Cer (C16:0) molar ratio of test compound group relative to DMSO control group x100; smaller value = glucosylceramide lowering.
For `Cc1cn(-c2ccccc2OCC(F)(F)F)c(=O)c2c(C(=O)Nc3ccc(C#N)cn3)cnn12` [Example 343, N-(5-cyanopyridin-2-yl)-7-methyl-4-oxo-5-[2-(2,2,2-trifluoroethoxy)phenyl]-4,5-dihydropyrazolo[1,5-a]pyrazine-3-carboxamide], the activity at 10 µM was 23%.

Take `Cc1cn(C)c(=O)c2c(C(=O)N3CC4CC4(c4ccc(OC(F)(F)F)cc4)C3)cn(C)c12` (centres unmarked) [Example 130, 1,5,7-trimethyl-3-((1-(4-(trifluoromethoxy)phenyl)-3-azabicyclo[3.1.0]hex-3-yl)carbonyl)-1,5-dihydro-4H-pyrrolo[3,2-c]pyridin-4-one]: the activity at 10 µM stood at 21%.

`CCCCO[C@H]1CC[C@H](NC(=O)c2cnn3c(C)cn(C)c(=O)c23)CC1` [Example 283, N-(trans-4-butoxycyclohexyl)-5,7-dimethyl-4-oxo-4,5-dihydropyrazolo[1,5-a]pyrazine-3-carboxamide]: the activity at 10 µM worked out at 75%.

As for `Cc1cn(C)c(=O)c2c(C(=O)Nc3ccccc3OCc3ccccc3)n(C)nc12` [Example 282, N-(2-(benzyloxy)phenyl)-2,5,7-trimethyl-4-oxo-4,5-dihydro-2H-pyrazolo[4,3-c]pyridine-3-carboxamide], the activity at 10 µM worked out at 66%.

As for `Cc1cn(C)c(=O)c2c(C(=O)N3CC4CC4(c4ccc(Cl)c(Cl)c4)C3)cn(C)c12` (centres unmarked) [Example 120, 3-((1-(3,4-dichlorophenyl)-3-azabicyclo[3.1.0]hex-3-yl)carbonyl)-1,5,7-trimethyl-1,5-dihydro-4H-pyrrolo[3,2-c]pyridin-4-one], the activity at 10 µM is 50%.

On to `Cc1cn(C)c(=O)c2c(C(=O)N3CCC(Oc4ccc(OC(F)(F)F)cc4)CC3)cnn12` [Example 303, 5,7-dimethyl-3-((4-(4-(trifluoromethoxy)phenoxy)piperidin-1-yl)carbonyl)pyrazolo[1,5-a]pyrazin-4(5H)-one], for which the activity at 10 µM was determined as 60%.

As to `Cc1cn(C)c(=O)c2c(C(=O)NCc3ccc(-c4ccc(Cl)cc4)s3)cn(C)c12` [Example 217, N-((5-(4-chlorophenyl)-2-thienyl)methyl)-1,5,7-trimethyl-4-oxo-4,5-dihydro-1H-pyrrolo[3,2-c]pyridine-3-carboxamide], the activity at 10 µM was found to be 64%.

With `Cc1cn(C)c(=O)c2c(C(=O)N3CCC(c4ccc(Cl)cc4)C3)cn(C)c12` (centres unmarked) [Example 71, 3-((3-(4-chlorophenyl)pyrrolidin-1-yl)carbonyl)-1,5,7-trimethyl-1,5-dihydro-4H-pyrrolo[3,2-c]pyridin-4-one], the activity at 10 µM was 68%.

Consider `Cc1cn(C)c(=O)c2c(C(=O)N[C@H]3CCCC[C@@H]3c3ccccc3)cn(C)c12` (racemic) [Example 112, 1,5,7-trimethyl-4-oxo-N-[rac-(1S,2R)-2-phenylcyclohexyl]-4,5-dihydro-1H-pyrrolo[3,2-c]pyridine-3-carboxamide], for which the activity at 10 µM was 61%.

`Cc1cn(C)c(=O)c2c(C(=O)N[C@H]3CCC[C@H]3c3ccccc3)cn(C)c12` (racemic) [Example 111, 1,5,7-trimethyl-4-oxo-N-[rac-(1S,2S)-2-phenylcyclopentyl]-4,5-dihydro-1H-pyrrolo[3,2-c]pyridine-3-carboxamide]: the activity at 10 µM worked out at 61%.

Consider `Cc1cn(C)c(=O)c2c(C(=O)N3CCC3c3ccccc3)cn(C)c12` (centres unmarked) [Example 83, 1,5,7-trimethyl-3-((2-phenylazetidin-1-yl)carbonyl)-1,5-dihydro-4H-pyrrolo[3,2-c]pyridin-4-one], for which the activity at 10 µM was 49%.

As for `COc1ccccc1-n1cc(C)c2c(c(C(=O)Nc3ccccc3)cn2C)c1=O` [Example 108, 5-(2-methoxyphenyl)-1,7-dimethyl-4-oxo-N-phenyl-4,5-dihydro-1H-pyrrolo[3,2-c]pyridine-3-carboxamide], the activity at 10 µM stood at 67%.

As to `CCCCO[C@H]1CC[C@H](NC(=O)c2nn(C)c3c(C)cn(C)c(=O)c23)CC1` [Example 277, N-(trans-4-butoxycyclohexyl)-1,5,7-trimethyl-4-oxo-4,5-dihydro-1H-pyrazolo[4,3-c]pyridine-3-carboxamide], the activity at 10 µM was 77%.

Turning to `CCCCO[C@H]1CC[C@H](NC(=O)c2cnn3c(C)cn(-c4ccccc4OCC(F)(F)F)c(=O)c23)CC1` [Example 339, N-[trans-4-butoxycyclohexyl]-7-methyl-4-oxo-5-[2-(2,2,2-trifluoroethoxy)phenyl]-4,5-dihydropyrazolo[1,5-a]pyrazine-3-carboxamide], the activity at 10 µM turned out to be 30%.

In the case of `Cc1cn(C)c(=O)c2c(C(=O)N3CCC4(c5cccc(Cl)c5)C(C3)C4(F)F)cn(C)c12` (centres unmarked) [Example 155, 3-((6-(3-chlorophenyl)-7,7-difluoro-3-azabicyclo[4.1.0]hept-3-yl)carbonyl)-1,5,7-trimethyl-1,5-dihydro-4H-pyrrolo[3,2-c]pyridin-4-one], the activity at 10 µM worked out at 53%.

Turning to `CCCCO[C@H]1CC[C@H](NC(=O)c2cn(C)c3c(C)cn(C)c(=O)c23)CC1` [Example 2, N-(trans-4-butoxycyclohexyl)-1,5,7-trimethyl-4-oxo-4,5-dihydro-1H-pyrrolo[3,2-c]pyridine-3-carboxamide], the activity at 10 µM was determined as 87%.

Consider `Cc1cn(C)c(=O)c2c(C(=O)NC3CCC(c4ccccc4)CC3)cn(C)c12` (centres unmarked) [Example 21, 1,5,7-trimethyl-4-oxo-N-(4-phenylcyclohexyl)-4,5-dihydro-1H-pyrrolo[3,2-c]pyridine-3-carboxamide], for which the activity at 10 µM is 67%.

Turning to `Cc1cn(C)c(=O)c2c(C(=O)N[C@H]3CCCC[C@H]3c3ccccc3)cn(C)c12` (racemic) [Example 113, 1,5,7-trimethyl-4-oxo-N-[rac-(1S,2S)-2-phenylcyclohexyl]-4,5-dihydro-1H-pyrrolo[3,2-c]pyridine-3-carboxamide], the activity at 10 µM worked out at 41%.

Turning to `COc1ccccc1-n1ccc2c(c(C(=O)Nc3ccc(N4CCOCC4)cc3)cn2C)c1=O` [Example 293, 5-(2-methoxyphenyl)-1-methyl-N-(4-(morpholin-4-yl)phenyl)-4-oxo-4,5-dihydro-1H-pyrrolo[3,2-c]pyridine-3-carboxamide], the activity at 10 µM was determined as 52%.

On to `Cc1cn(C)c(=O)c2c(C(=O)N[C@H]3CCC[C@H](c4ccccc4)C3)cn(C)c12` (racemic) [Example 114, 1,5,7-trimethyl-4-oxo-N-[rac-(1S,3S)-3-phenylcyclohexyl]-4,5-dihydro-1H-pyrrolo[3,2-c]pyridine-3-carboxamide], for which the activity at 10 µM amounted to 58%.

Take `Cc1cn(-c2ccccc2OCC(F)(F)F)c(=O)c2c(C(=O)Nc3ccc(C#N)nc3)cnn12` [Example 342, N-(6-cyanopyridin-3-yl)-7-methyl-4-oxo-5-[2-(2,2,2-trifluoroethoxy)phenyl]-4,5-dihydropyrazolo[1,5-a]pyrazine-3-carboxamide]: the activity at 10 µM amounted to 28%.

Consider `Cc1cn(C)c(=O)c2c(C(=O)N3CCC(Oc4ccc(Cl)c(Cl)c4)CC3)cn(C)c12` [Example 178, 3-((4-(3,4-dichlorophenoxy)piperidin-1-yl)carbonyl)-1,5,7-trimethyl-1,5-dihydro-4H-pyrrolo[3,2-c]pyridin-4-one], for which the activity at 10 µM was 42%.

`Cc1cn(-c2ccc(F)cc2OCC(F)(F)F)c(=O)c2c(C(=O)Nc3ccc(N4CCOCC4)cc3)cnn12` [Example 336, 5-[4-fluoro-2-(2,2,2-trifluoroethoxy)phenyl]-7-methyl-N-[4-(morpholin-4-yl)phenyl]-4-oxo-4,5-dihydropyrazolo[1,5-a]pyrazine-3-carboxamide]: the activity at 10 µM came to 42%.

As to `Cc1cn(C)c(=O)c2c(C(=O)N3CC4CC4(c4cccc(OC(F)(F)F)c4)C3)cn(C)c12` (centres unmarked) [Example 131, 1,5,7-trimethyl-3-((1-(3-(trifluoromethoxy)phenyl)-3-azabicyclo[3.1.0]hex-3-yl)carbonyl)-1,5-dihydro-4H-pyrrolo[3,2-c]pyridin-4-one], the activity at 10 µM was determined as 63%.

With `Cn1cc(C(=O)Nc2ccc(N3CCOCC3)cc2)c2c(=O)n(-c3ccccc3OCC(F)(F)F)ccc21` [Example 294, 1-methyl-N-(4-(morpholin-4-yl)phenyl)-4-oxo-5-(2-(2,2,2-trifluoroethoxy)phenyl)-4,5-dihydro-1H-pyrrolo[3,2-c]pyridine-3-carboxamide], the activity at 10 µM is 36%.
